Measurements: patent publication US20240197890A1, “FLAVONE DERIVATIVES AND USES IN TARGETING CK2-MEDIATED DISEASES AND CONDITIONS” (Salk Institute for Biological Studies, priority 2020, published 2024)

Assays:
[1] = tested on: NF-κB pS529; experiment: Immunofluorescence of NF-κB and NF-κB pS529 in activated astrocytes; assay type: cell-based, human; details: after 1 h
Protocol: Immunotluorescence. […] After treatment, cells were fixed with 4% paraformaldehyde solution for 20 min at room temperature and washed 3× with DPBS for 10 min each. The cells were permeabilized using 5% horse serum and 10% Triton X in DPBS for 15 min at room temperature and blocked with 5% horse serum in PBS for 30 min at room temperature. Cells were incubated with primary antibodies in blocking buffer either overnight at 4° C. or for 2 hours at room temperature. After incubation, cells were washed 3× with PBS, blocked using 5% horse serum in PBS for 30 min at room temperature, and incubated with Cy3 red-labeled or AF488 green-labeled secondary antibodies diluted in blocking buffer for 1 hour at room temperature. The cells were washed once with PBS for 10 min, then counter-stained with DAPI. The cells were washed 3× with PBS and mounted with glass coverslips and Immu-Mount solution. Images were obtained with the Zeiss fluorescent microscope. The following primary antibodies were used: rabbit anti-NF-κB (1:400; CST), mouse anti-phospho NF-κB S529 (20 ug/ml; Thermo Fisher), rabbit anti-CK2A1 (1:500; Bethyl), mouse anti-IKb alpha (1:400; CST), mouse anti-phospho IKb alpha (1:50; Santa Cruz), rabbit anti-phospho CK2A1 (1:25; Thermo Fisher), rabbit anti-phospho Cdc37 (1:50; Novus), mouse anti-phospho NF-κB S529 (1:25; R&D), rabbit anti-Cdc37 (1:100; CST), mouse anti-SQSTM1 (1:50; Santa Cruz), anti rabbit-phospho NF-κB S536 (1:1600; CST), anti rabbit-Akt (pan) (1:400; CST), anti mouse-phospho Akt S473 (1:500; Sigma).
To investigate the potential effects of CK2 activity on NF-κB, NF-κB and NF-κB pS529 were measured by immunofluorescence in activated astrocytes. […] At this timepoint, NF-κB pS529 levels were similar across all treatments, possibly as a result of slower turnover by pNF-κB species.

[2] = tested on: CK2 Y255; experiment: Immunofluorescence of CK2 Y255 phosphorylation in nuclei of primary human astrocytes; assay type: cell-based; details: 20 μM, 5 h
Protocol: Immunotluorescence. […] After treatment, cells were fixed with 4% paraformaldehyde solution for 20 min at room temperature and washed 3× with DPBS for 10 min each. The cells were permeabilized using 5% horse serum and 10% Triton X in DPBS for 15 min at room temperature and blocked with 5% horse serum in PBS for 30 min at room temperature. Cells were incubated with primary antibodies in blocking buffer either overnight at 4° C. or for 2 hours at room temperature. After incubation, cells were washed 3× with PBS, blocked using 5% horse serum in PBS for 30 min at room temperature, and incubated with Cy3 red-labeled or AF488 green-labeled secondary antibodies diluted in blocking buffer for 1 hour at room temperature. The cells were washed once with PBS for 10 min, then counter-stained with DAPI. The cells were washed 3× with PBS and mounted with glass coverslips and Immu-Mount solution. Images were obtained with the Zeiss fluorescent microscope. […]

[3] = tested on: iGluta neurons co-cultured with BD or CT astrocytes; experiment: Neuronal activity of iGluta neurons co-cultured with pretreated astrocytes; assay type: cell-based, human; details: BD astrocytes pretreated 5 h with IL1β and 20 μM compound, compared to vehicle
Source text: Activity of CT astrocytes is also renormalized (C+vs. D+).

[4] = tested on: HMGB1; experiment: HMGB1 secretion in AD patient iPSC-derived astrocytes (Western blot); assay type: cell-based, human
Protocol: (§1) Western blotting. For drug treatment assays, cells were treated with vehicle (DMSO) or 20 μM compound and stimulated with IL1-B 10 ng/mL for 1 h, 6 h, or 24 h. Cells were dissociated with 1:1 Accutase:papain for 3 min at rt, pelleted for 5 min at 800 g, and washed twice with cold DPBS. Pellets were lysed with RIPA buffer (Sigma R0278) supplemented with Halt protease inhibitor cocktail (Thermo Fisher 78445) and clarified by centrifugation (16,000 g, 10 min, 4° C.). Protein concentration was determined by BCA assay (Thermo Fisher). Proteins were denatured in 1×LDS Buffer and 2.5% beta-mercaptoethanol (X) for 10 min at 70° C., separated on Bolt 4-12% Bis-Tris Plus polyacrylamide gels (Thermo Fisher), transferred to PVDF membranes using the iBlot 2 Dry Blotting System, and blocked with 0.1% casein-PBS (Bio-Rad) for 1 h at room temperature. The blots were incubated with primary antibodies overnight at 4° C. in PBS containing 0.1% casein and 0.2% Tween-20. […] The blots were imaged using the Odyssey CLx imaging system and blots were analyzed on the ImageStudio software (LI-COR).
To further investigate this CK2 dysregulation in an in vitro AD model, iPSC-derived astrocytes were generated from a cohort of 6 AD patients and 5 age-matched controls. […] HMGB1 was detected in media from AD astrocytes in the absence of inflammatory stimuli (FIG. 12C). […]

[5] = tested on: LC3-II; experiment: LC3-II in AD patient-derived induced neurons; assay type: cell-based, human; details: 24 h
Protocol: as §1

[6] = tested on: LPS-induced cytokine release in human iPSC-derived microglia; experiment: Cytokine release assay in LPS-stimulated iPSC-derived microglia; assay type: cell-based; details: 20 μM, 5 hours, panel of 36 cytokines
Protocol: Cytokine release assay. […] Subsequently, media cleared of cells and debris was collected, snap-frozen and stored at -80 C until processing with the Human Cytokine Array kit (R&D Systems, Catalog #ARY005). Briefly, media was diluted in Array Buffer 4 and incubated with a cocktail of biotinylated detection antibodies for 1 h at room temperature with rocking. The resulting immunocomplexes were incubated with nitrocellulose membranes spotted with capture antibodies overnight at 4 C (see below for full list of targets). The membranes were washed 4× with Wash Buffer, then incubated with IRDye 800CW Streptavidin for 30 minutes at room temperature (1:2000 in Array Buffer 5, LI-COR #926-32230). The membranes were washed 4× and imaged with an Odyssey CLx instrument. Intensity for each spot was quantified with ImageStudio. Technical duplicate values for each target were averaged, and we determined differential cytokine release by microglia exposed to LPS+vehicle versus vehicle only (n=2 biological replicates, two-tailed t-tests, P<0.05).

`COc1cc(-c2cc(=O)c3c(O)cc(O)cc3o2)ccc1O` [CHR, chrysoeriol] was tested, and the “IL1-β-induced increase of NF-κB nuclear intensity” value [1] was “blocked”, the pCK2/CK2 in nuclei [2] was “reduced” and the “neuronal activity (mean firing rate)” value [3] was “increased”. For the same compound, the HMGB1 secretion [4] was “reduced”, the “LC3-II (marker of autophagy/mitophagy)” value [5] was “increased” and the “release of LPS-induced pro-inflammatory cytokines” value [6] was “significantly blocked”.
